The values below come from US20230303539A1, “IMMUNOREGULATORY COMPOUND AND ANTITUMOR APPLICATION THEREOF” (SHANGHAITECH UNIVERSITY, priority 2020, published 2023).

Assay [1] deals with IKZF1/3. Briefly: IKZF protein degradation, western blotting assay in SU-DHL-4. To be noted: SU-DHL-4, western blotting, dose-dependent; FIGS. 4-5. The class given is cell-based, human. Here is the method: (§1) Most antibodies were purchased from Cell Signaling Technology, including IKZF1 (#9034S), IKZF3(#15103S), CK1α(#ab108296). GAPDH antibody was purchased from Abcam Company. Tumor cells were plated in a 24-well plate at a cell seeding density of 3×10^5 cells/mL, with 1 mL culture media per well. After 24 h, the cells were treated with different concentrations of the compounds of the present disclosure. After 16 hours, the cells were collected, and washed with PBS. The supernatant was discarded, and the cells were placed on ice, and treated with RIPA protein lysate containing Halt protease and phosphatase inhibitor. The lysate was centrifuged at 10000 RPM at 4° C. for 10 minutes, and the supernatant was collected. An equal amount of proteins were loaded in 4×SDS sample solution, denatured at 95° C. for 5 minutes, and then freezed to -20° C. or directly subjected to protein electrophoresis (4-15% gradient gel, Bio-rad). […] DC50 value (the drug concentration required for degrading proteins by 50%, abbreviated as DC50) reads method: comparing the gray values of the Western blotting bands for the drug treatment with the gray values of the Western blotting band for the DMSO control, and reading the drug concentration range corresponding to the gray value of the Western blotting bands for the drug treatment which is equal to half of the gray value of the Western blotting band for the DMSO control. […]

Assay [2] relates to human diffuse large B-cell lymphoma cell line WSU-DLCL2. The experiment in a line: Cell proliferation inhibition (CCK-8) in WSU-DLCL2. The assay is classed as cell-based. To be noted: WSUDLCL2, WSU-DLCL2 cells, 72 h treatment, read-out: IC50 (half inhibitory concentration) in tumor cells, WSU-DLCL2. The text has this: (§2) The tested cell lines used were: Multiple myeloma cell line MM.1S, human Burkitt's lymphoma cell line Daudi, human acute promyelocytic leukemia cell line NB4, human mantle cell lymphoma cell line JEKO-1, human B-cell lymphoma cell line SU-DHL-4, human mantle cell lymphoma cell line Mino, human diffuse large B-cell lymphoma cell line TMD8, human B-cell lymphoma cell line DOHH2, PBMCs cell and human diffuse large B-cell lymphoma cell line WSU-DLCL2, which were purchased from ATCC (American type Culture Collection) or Cell Bank/Stem Cell Bank, Chinese Academy of Sciences. The medium was RPMI1640 supplemented with 10% FBS (fetal calf serum) and 1% Penicillin-Streptomycin. […]
(§3) IC50 values of the compounds of the present disclosure (including the compounds in Table 1 and compounds of examples 1-23) were measured using Cell Titer Blue, Cell Titer GLO, or WST reagent from Promega Company. […] After the cells were treated with the compounds of the present disclosure to be tested for 72 h, cell viability was determined after adding the cell viability detection kit listed above according to the reagent operating instructions. […] The growth inhibition of the compounds of the present disclosure on cells was plotted by Prism Graphpad software, and the IC50 values of the compounds of the present disclosure were calculated therefrom. […]

Assay [3] relates to human B-cell lymphoma cell line SU-DHL-4. Briefly: Cell proliferation inhibition (CCK-8) in SU-DHL-4. The class given is cell-based. The conditions noted are these: SU-DHL-4 cells, 72 h treatment, FIG. 3.
Text: as §2, §3

Assay [4] concerns human B-cell lymphoma cell line DOHH2. The experiment in a line: Cell proliferation inhibition (CCK-8) in DOHH2. The assay is classed as cell-based. To be noted: DOHH-2, DOHH2 cells, 72 h treatment, read-out: IC50 (half inhibitory concentration) in tumor cells, DOHH2.
Text: as §2, §3

For assay [5], the system named is human mantle cell lymphoma cell line JEKO-1. The experiment in a line: Cell proliferation inhibition (CCK-8) in JEKO-1. The conditions noted are these: JEKO-1 cells, 72 h treatment, FIG. 3. The assay is classed as cell-based.
Text: as §2, §3

Assay [6] has as its system human mantle cell lymphoma cell line Mino. The experiment in a line: Cell proliferation inhibition (CCK-8) in Mino. The assay is classed as cell-based. The conditions noted are these: MINO cells, 72 h treatment, read-out: IC50 (half inhibitory concentration) in tumor cells, MINO.
Text: as §2, §3

In the next assay the test system is B lymphoma cells Daudi. Briefly: Cell proliferation inhibition (cell viability, CCK-8) in Daudi. The assay is classed as cell-based. The conditions noted are these: Homo sapiens, 72 h treatment, CCK-8 cell viability. An excerpt:
(§4) The tested cell lines used were: Multiple myeloma cell line MM.1S, human Burkitt's lymphoma cell line Daudi, human acute promyelocytic leukemia cell line NB4, human mantle cell lymphoma cell line JEKO-1, human B-cell lymphoma cell line SU-DHL-4, human mantle cell lymphoma cell line Mino, human diffuse large B-cell lymphoma cell line TMD8, human B-cell lymphoma cell line DOHH2, PBMCs cell and human diffuse large B-cell lymphoma cell line WSU-DLCL2, which were purchased from ATCC (American type Culture Collection) or Cell Bank/Stem Cell Bank, Chinese Academy of Sciences. The medium was RPMI1640 supplemented with 10% FBS (fetal calf serum) and 1% Penicillin-Streptomycin. The cells used were identified as correct cells by STR cells, and were negative for mycoplasma through routine inspections.
(§5) IC50 values of the compounds of the present disclosure (including the compounds in Table 1 and compounds of examples 1-23) were measured using Cell Titer Blue, Cell Titer GLO, or WST reagent from Promega Company. Assay details are as follows: Cells were seeded in 100 μL RPMI1640 medium containing serum at a density of 15,000 cells/well. After 24 h, the inoculated cells were treated with diluted commercial inhibitor and the compounds of the present disclosure to be tested after serial dilution. After the cells were treated with the compounds of the present disclosure to be tested for 72 h, cell viability was determined after adding the cell viability detection kit listed above according to the reagent operating instructions. The negative control was DMSO, and the positive control was a commercial inhibitor, both of which were used to treat the cells through the same method as that of the compounds of the present disclosure. The growth inhibition of the compounds of the present disclosure on cells was plotted by Prism Graphpad software, and the IC50 values of the compounds of the present disclosure were calculated therefrom.
(§6) We tested the activities of the compounds of the present invention (including the compounds in Table 1 and Examples 1-23 compounds) in multiple myeloma cancer cells MM.1S cell and B lymphoma cells Daudi through a dose-dependent manner. The cells were treated with the compounds of the present invention at 10 different successively decreasing concentrations (starting at the highest concentration of […]; 5-fold serial dilutions) for 72 h, and then the cell viability determination was performed in accordance with CCK-8 reagent operating instructions.

In assay [7] the test system is multiple myeloma cancer cells MM.1S. The experiment in a line: Cell proliferation inhibition (cell viability, CCK-8) in MM.1S. The class given is cell-based. The conditions noted are these: Homo sapiens, MM1.S; MM.1S cells, 72 h treatment, CCK-8 cell viability.
Text: as §4, §5, §6

Assay [8] concerns human diffuse large B-cell lymphoma cell line TMD8. Briefly: Cell proliferation inhibition (CCK-8) in TMD8. The class given is cell-based. To be noted: TMD8 cells, 72 h treatment, read-out: IC50 (half inhibitory concentration) in tumor cells, TMD8.
Text: as §2, §3

In assay [9] the test system is IKZF1/3. Briefly: IKZF protein degradation, western blotting assay in WSU-DLCL2. The assay is classed as cell-based, human. The conditions noted are these: dose-dependent, FIGS. 4-5. Here is the method: as §1

`Cc1nc2cccc(NCc3ccc(CN4CCCCCC4)cc3F)c2c(=O)n1C1CCC(=O)NC1=O` (stereo not shown) [SIAIS355035, 3-(5-((4-(azepan-1-ylmethyl)-2-fluorobenzyl)amino)-2-methyl-4-oxoquinazolin-3(4H)-yl)piperidine-2,6-dione]: the “IKZF1/3 degradation (in words)” value with IKZF1/3 [1] and in the assay on IKZF1/3 [9] was “can significantly degrade IKZF1/3 at effective concentration significantly lower than that of CC-122” each time. The IC50 in [2] was 164 nM; in assay [4] it was 307 nM; in assay [6], 5.05 nM; in the assay on B lymphoma cells Daudi it was 12.9 ± 3.87 nM; in [7], 2.62 ± 0.49 nM; in assay [8], 103 nM. In addition, the “inhibition of SU-DHL-4 cell line (in words)” value in assay [3] was “significantly stronger inhibitory effects as compared with CC-122 and lenalidomide”. For the same molecule, the “inhibition of JEKO-1 cell line (in words)” value in assay [5] was “significantly stronger inhibitory effects as compared with CC-122 and lenalidomide”.
